Laboratory results from patent US6506799B1, “Methods of treating cardiovascular diseases, dyslipidemia, dyslipoproteinemia, and hypertension with ether compounds” (Esperion Therapeutics, Inc., priority 1999, dated 2003).

Assays:
[1] = system: LDL receptor deficient mice; assay: Lipoprotein cholesterol profile in LDL receptor-deficient mice; assay type: in vivo; settings: 300 mg/kg/day, chow-fed female mice
Source text: The effect of Compound A on LDL levels in a murine model of homozygous familial hypercholesterolemia (Ishibashi et al., 1993, J. Clin. Invest. 92:883-893; Ishibashi et al., 1994, J. Clin. Invest. 93:1885-1893) was studied. LDL receptor-deficient mice have elevated LDL cholesterol relative to wild type mice when fed a chow diet. When fed cholesterol-enriched diets, these mice develop atherosclerosis.

[2] = system: chow fed obese female Zucker rats; assay: Experiments B, C, D, E: serum lipids, glucose, insulin, body and liver weight in obese female Zucker rats, 14 days; assay type: in vivo, rat; settings: for Body Weight Gain (% of Pretreatment) / HDL-Cholesterol (% of Pretreatment) / Non HDL-Cholesterol (% of Pretreatment) / Triglycerides (% of Pretreatment): 14 days
Protocol: In a number of different experiments, illustrative compounds of the invention and troglitazone were administered daily at various doses to 10-week old chow fed obese female Zucker rats for 14 days in the morning by oral gavage in 1.5% carboxymethylcellulose/0.2% Tween-20 (dosing vehicle). Animals were weighed daily. Animals were allowed free access to rodent chow and water throughout the study. Blood glucose was determined after a 6-hour fast in the afternoon without anesthesia from a tail vein. Serum was also prepared from a blood sample subsequently obtained from the orbital venous plexus (with O2/CO2 anesthesia) prior to and after one week treatment and used lipid and insulin determinations. At two weeks, blood glucose was again determined after a 6-hour fast without anesthesia from a tail vein. Soon thereafter, animals were sacrificed by CO2 inhalation in the evening and cardiac blood serum was collected and assessed for various lipids and insulin. Body weight was determined daily prior to dosing and at the time of euthanasia.

3T3-L1 cells = assay: Insulin sensitization: 14C-acetate incorporation into lipids in 3T3-L1 preadipocytes; assay type: cell-based; settings: preadipocytes treated 4 days; insulin-dependent (30 nM insulin); FIG. 20
Protocol: The effects of Compound A on rate of differentiation of 3T3-L1 cells from a “committed pre-adipocyte” to an “adipocyte” phenotype in the absence or presence of insulin is tested. The differentiation of 3T3-L1 cells to an adipocyte-like phenotype is highly dependent upon insulin. […] In this assay the degree of differentiation was a reflection of the rate of lipid synthesis, as measured through incorporation of ^14C-acetate over 2 hours.
3T3-L1 stem cells were induced to differentiate with dexamethasone, isobutylmethylxanthine and insulin (Green and Kehinde, 1975, Cell 5:19-27). Cells were plated in Dulbecco's modified Eagle medium containing 10% calf serum and grown to confluence. Cells were then refreshed with 10% fetal calf serum, and treated with 0.5 mM isobutylmethylxanthine and 250 nM dexamethasone, but no additional insulin, for 48 hours. […]
The preadipocytes were then treated for 4 days with various concentrations of Compound A in 5% fetal calf serum in Dulbecco's modified Eagles medium, with or without a submaximal concentration of insulin (30 nM). […] Cell were then washed with phosphate buffered saline, lysed with 0.1 N NaOH, and ^14C-acetate incorporation into lipids was determined using phase separation and liquid scintillation counting.

female obese Zucker rats = assay: Experiment A: serum lipids, glucose, non-esterified fatty acids and weight gain in obese female Zucker rats after seven days; assay type: in vivo, rat; settings: 86 mg/kg
Protocol: Dosing vehicle, Compound A (86 mg/kg of body weight) or troglitazone (120 mg/kg of body weight) was administered to eight week old female obese Zucker rats daily for seven days in the morning by oral gavage in 1.5% carboxymethylcellulose/0.2% Tween-20. Troglitazone was obtained commercially. Finely crushed tablets were suspended in vehicle for dosing. Orbital blood samples were obtained following a six-hour fast prior to the initial dose and also following the seventh dose.
Blood serum was assayed for total cholesterol and triglycerides (FIG. 5), lipoprotein cholesterol profiles (FIG. 6), VLDL plus LDL cholesterol combined (also referred to as apo B containing lipoprotein cholesterol or non-HDL cholesterol), HDL cholesterol, and the ratio of HDL cholesterol to that of VLDL plus LDL cholesterol (FIG. 7), serum glucose, and non-esterified fatty acids (FIG. 8), and percent weight gain (FIG. 9). […] In particular, Compound A caused a marked elevation in HDL cholesterol after one week of treatment. Using the serum total cholesterol values (FIG. 5A) and the lipoprotein cholesterol distribution (FIG. 6), the amount of cholesterol associated with non-HDL (i.e., VLDL plus LDL) and HDL were determined (FIG. 7). […] In contrast, troglitazone reduced non-HDL and HDL cholesterol by 67% and 4%, respectively.

[3] = Experiment C, 100 mg/kg, after two weeks of treatment

serum glucose (female obese Zucker rats; one week): did not induce a hypoglycemic state
Structure (SMILES): CC(C)(CO)CCCCOCCCCC(C)(C)CO [Compound A, 6-(6-hydroxy-5,5-dimethylhexyloxy)-2,2-dimethyl-hexan-1-ol]
LDL cholesterol ([1]; after one week of treatment): rapid and significant reduction
HDL ([1]; seven daily treatments): HDL elevation in all treated mice
Body Weight Gain (% of Pretreatment) ([2]; Experiment C, 1 mg/kg/day): +16.7 % of Pretreatment
HDL-Cholesterol (% of Pretreatment) ([2]; Experiment C, 1 mg/kg/day): −24.1 % of Pretreatment
Non HDL-Cholesterol (% of Pretreatment) ([2]; Experiment C, 1 mg/kg/day): −25.6 % of Pretreatment
Triglycerides (% of Pretreatment) ([2]; Experiment C, 1 mg/kg/day): −8.8 % of Pretreatment
Body Weight Gain (% of Pretreatment) ([2]; Experiment C, 3 mg/kg/day): +17.5 % of Pretreatment
HDL-Cholesterol (% of Pretreatment) ([2]; Experiment C, 3 mg/kg/day): −3.7 % of Pretreatment
Non HDL-Cholesterol (% of Pretreatment) ([2]; Experiment C, 3 mg/kg/day): −29.6 % of Pretreatment
Triglycerides (% of Pretreatment) ([2]; Experiment C, 3 mg/kg/day): −24.6 % of Pretreatment
Body Weight Gain (% of Pretreatment) ([2]; Experiment C, 10 mg/kg/day): +10.7 % of Pretreatment
HDL-Cholesterol (% of Pretreatment) ([2]; Experiment C, 10 mg/kg/day): +154.4 % of Pretreatment
Non HDL-Cholesterol (% of Pretreatment) ([2]; Experiment C, 10 mg/kg/day): −14.2 % of Pretreatment
Triglycerides (% of Pretreatment) ([2]; Experiment C, 10 mg/kg/day): −50.9 % of Pretreatment
Body Weight Gain (% of Pretreatment) ([2]; Experiment C, 30 mg/kg/day): +11.3 % of Pretreatment
HDL-Cholesterol (% of Pretreatment) ([2]; Experiment C, 30 mg/kg/day): +369.7 % of Pretreatment
Non HDL-Cholesterol (% of Pretreatment) ([2]; Experiment C, 30 mg/kg/day): +38.4 % of Pretreatment
Triglycerides (% of Pretreatment) ([2]; Experiment C, 30 mg/kg/day): −42.0 % of Pretreatment
glucose to insulin ratio ([2]; Experiment C, 100 mg/kg): reduced
Body Weight Gain (% of Pretreatment) ([2]; Experiment C, 100 mg/kg/day): +9.2 % of Pretreatment
HDL-Cholesterol (% of Pretreatment) ([2]; Experiment C, 100 mg/kg/day): +801.8 % of Pretreatment
Non HDL-Cholesterol (% of Pretreatment) ([2]; Experiment C, 100 mg/kg/day): +45.1 % of Pretreatment
Triglycerides (% of Pretreatment) ([2]; Experiment C, 100 mg/kg/day): −57.0 % of Pretreatment
HDL-cholesterol increase [2, 3]: 802%
elevation of HDL-cholesterol [2, 3]: 9 fold
blood glucose ([2]; Experiment C, 100 mg/kg, fasted): tendency to lower blood glucose
glucose to insulin ratio ([2]; Experiment C, 1 and 3 mg/kg, two weeks): declined by approximately ⅓ to ½
weight gain ([2]; Experiment C, 10, 30 and 100 mg/kg, after one and two weeks): markedly reduced
glucose to insulin ratio ([2]; Experiment C, 10 and 30 mg/kg): sustained at pretreatment levels
minimal effective dose for reduction in serum triglycerides ([2]; Experiment C, FIG. 10): approximately 3 mg/kg
dose at which elevation of serum total cholesterol begins ([2]; Experiment C, FIG. 11): approximately 10 mg/kg/day
percent liver to body weight ([2]; Experiment C, after two weeks of treatment, FIG. 16): increased in a dose dependent manner
serum triglyceride levels ([2]; Experiment C, doses 1-100 mg/kg, FIG. 10): reduced serum triglyceride levels at all doses
rise in serum insulin ([2]; Experiment C, higher doses (10, 30, 100 mg/kg)): largely curtailed or minimized
Body Weight Gain (% of Pretreatment) ([2]; Experiment D, 10 mg/kg/day): +2.2 % of Pretreatment
HDL-Cholesterol (% of Pretreatment) ([2]; Experiment D, 10 mg/kg/day): +133.9 % of Pretreatment
Non HDL-Cholesterol (% of Pretreatment) ([2]; Experiment D, 10 mg/kg/day): +49.3 % of Pretreatment
Triglycerides (% of Pretreatment) ([2]; Experiment D, 10 mg/kg/day): −11.1 % of Pretreatment
Body Weight Gain (% of Pretreatment) ([2]; Experiment D, 100 mg/kg/day): +4.5 % of Pretreatment
HDL-Cholesterol (% of Pretreatment) ([2]; Experiment D, 100 mg/kg/day): +187.9 % of Pretreatment
Non HDL-Cholesterol (% of Pretreatment) ([2]; Experiment D, 100 mg/kg/day): +7.5 % of Pretreatment
Triglycerides (% of Pretreatment) ([2]; Experiment D, 100 mg/kg/day): −62.9 % of Pretreatment
Body Weight Gain (% of Pretreatment) ([2]; Experiment E, 100 mg/kg/day): +19.1 % of Pretreatment
HDL-Cholesterol (% of Pretreatment) ([2]; Experiment E, 100 mg/kg/day): +232.1 % of Pretreatment
Non HDL-Cholesterol (% of Pretreatment) ([2]; Experiment E, 100 mg/kg/day): +7.2 % of Pretreatment
Triglycerides (% of Pretreatment) ([2]; Experiment E, 100 mg/kg/day): −43.2 % of Pretreatment
increase of 14C-acetate incorporation into lipids (3T3-L1 cells): approximately 40%
change of non-HDL cholesterol (VLDL plus LDL) (female obese Zucker rats; one week): +10.3%
increase of HDL cholesterol (female obese Zucker rats; one week): 3.9 fold
reduction of non-esterified fatty acids (female obese Zucker rats; one week): 52%
reduction of serum triglycerides (female obese Zucker rats; one week): 68%
ratio of HDL/non-HDL cholesterol (female obese Zucker rats; one week treatment, pre-treatment 4.2): 14.9
increase of the ratio of HDL/non-HDL cholesterol (female obese Zucker rats; one week, vs pre-treatment): 3.6 fold
increase of total serum cholesterol (female obese Zucker rats; one week, vs pre-treatment): 3.3 fold
increase in body weight (female obese Zucker rats; seven days, vehicle 6.6%): 5.4%
